From patent US6552196B2, “Quinolone carboxylic acid derivatives” (Dong Wha Pharmaceutical Industrial Co., Ltd., priority 1997, dated 2003)
Converted amounts (≈) assume the structure as drawn.

Assays:
Format in all cases: cell-based
[1] = test system: Staphylococcus aureus 121E; assay: In vitro antibacterial activity against resistant strains (MIC); conditions: resistant strain Staphylococcus aureus 121E; 2-fold agar dilution; methicillin resistant strains 48 hours at 30° C.; read-out: minimum inhibitory concentration (MIC)
Procedure: (§1) 10^7 cfu/ml of bacteria were inoculated and cultured for 18 hours at 37° C. and then the antibacterial activities were measured. For the methicillin resistant strains the activities were measured after 48 hours of cultivation at 30° C. Hoechst Standard strains were used for the testings.

[2] = test system: Staphylococcus aureus 693E; assay: as above; conditions: resistant strain Staphylococcus aureus 693E; 2-fold agar dilution; methicillin resistant strains 48 hours at 30° C.; read-out: minimum inhibitory concentration (MIC)
Procedure: as §1

[3] = test system: Staphylococcus aureus 694E; assay: as above; conditions: resistant strain Staphylococcus aureus 694E; 2-fold agar dilution; methicillin resistant strains 48 hours at 30° C.; read-out: minimum inhibitory concentration (MIC)
Procedure: as §1

[4] = test system: Staphylococcus aureus 88E; assay: as above; conditions: resistant strain Staphylococcus aureus 88E; 2-fold agar dilution; methicillin resistant strains 48 hours at 30° C.; read-out: minimum inhibitory concentration (MIC)
Procedure: as §1

[5] = test system: Staphylococcus aureus 701E; assay: as above; conditions: resistant strain Staphylococcus aureus 701E; 2-fold agar dilution; methicillin resistant strains 48 hours at 30° C.; read-out: minimum inhibitory concentration (MIC)
Procedure: as §1

[6] = test system: Staphylococcus aureus 690E; assay: as above; conditions: resistant strain Staphylococcus aureus 690E; 2-fold agar dilution; methicillin resistant strains 48 hours at 30° C.; read-out: minimum inhibitory concentration (MIC)
Procedure: as §1

[7] = test system: Staphylococcus aureus 697E; assay: as above; conditions: resistant strain Staphylococcus aureus 697E; 2-fold agar dilution; methicillin resistant strains 48 hours at 30° C.; read-out: minimum inhibitory concentration (MIC)
Procedure: as §1

[8] = test system: Staphylococcus aureus 695E; assay: as above; conditions: resistant strain Staphylococcus aureus 695E; 2-fold agar dilution; methicillin resistant strains 48 hours at 30° C.; read-out: minimum inhibitory concentration (MIC)
Procedure: as §1

[9] = test system: Staphylococcus aureus 303; assay: as above; conditions: resistant strain Staphylococcus aureus 303; 2-fold agar dilution; methicillin resistant strains 48 hours at 30° C.; read-out: minimum inhibitory concentration (MIC)
Procedure: as §1

[10] = test system: Staphylococcus epidermidis 178; assay: as above; conditions: resistant strain Staphylococcus epidermidis 178; 2-fold agar dilution; methicillin resistant strains 48 hours at 30° C.; read-out: minimum inhibitory concentration (MIC)
Procedure: as §1

[11] = test system: Staphylococcus aureus 179; assay: as above; conditions: resistant strain Staphylococcus aureus 179; 2-fold agar dilution; methicillin resistant strains 48 hours at 30° C.; read-out: minimum inhibitory concentration (MIC)
Procedure: as §1

[12] = test system: Staphylococcus aureus 241; assay: as above; conditions: resistant strain Staphylococcus aureus 241; 2-fold agar dilution; methicillin resistant strains 48 hours at 30° C.; read-out: minimum inhibitory concentration (MIC)
Procedure: as §1

[13] = test system: Staphylococcus aureus 256E; assay: as above; conditions: resistant strain Staphylococcus aureus 256E; 2-fold agar dilution; methicillin resistant strains 48 hours at 30° C.; read-out: minimum inhibitory concentration (MIC)
Procedure: as §1

[14] = test system: Staphylococcus aureus 293; assay: as above; conditions: resistant strain Staphylococcus aureus 293; 2-fold agar dilution; methicillin resistant strains 48 hours at 30° C.; read-out: minimum inhibitory concentration (MIC)
Procedure: as §1

[15] = test system: Staphylococcus aureus 208E; assay: as above; conditions: resistant strain Staphylococcus aureus 208E; 2-fold agar dilution; methicillin resistant strains 48 hours at 30° C.; read-out: minimum inhibitory concentration (MIC)
Procedure: as §1

[16] = test system: Staphylococcus aureus 8236; assay: as above; conditions: resistant strain Staphylococcus aureus 8236; 2-fold agar dilution; methicillin resistant strains 48 hours at 30° C.; read-out: minimum inhibitory concentration (MIC)
Procedure: as §1

[17] = test system: Staphylococcus epidermidis 291; assay: as above; conditions: resistant strain Staphylococcus epidermidis 291; 2-fold agar dilution; methicillin resistant strains 48 hours at 30° C.; read-out: minimum inhibitory concentration (MIC)
Procedure: as §1

[18] = test system: Staphylococcus aureus 703E; assay: as above; conditions: resistant strain Staphylococcus aureus 703E; 2-fold agar dilution; methicillin resistant strains 48 hours at 30° C.; read-out: minimum inhibitory concentration (MIC)
Procedure: as §1

[19] = test system: Staphylococcus aureus 692E; assay: as above; conditions: resistant strain Staphylococcus aureus 692E; 2-fold agar dilution; methicillin resistant strains 48 hours at 30° C.; read-out: minimum inhibitory concentration (MIC)
Procedure: as §1

[20] = test system: Streptococcus pyogens 77A; assay: In vitro antibacterial activity (MIC), agar dilution; conditions: 2-fold agar dilution, Muller-Hinton agar, 18 hours at 37° C., read-out: minimum inhibitory concentration (MIC)
Procedure: as §1

[21] = test system: Klebsiella aerogenes 1522E; assay: as above; conditions: 2-fold agar dilution, Muller-Hinton agar, 18 hours at 37° C., read-out: minimum inhibitory concentration (MIC)
Procedure: as §1

Klebsiella oxytoca 1082E = assay: as above; conditions: 2-fold agar dilution, Muller-Hinton agar, 18 hours at 37° C., read-out: minimum inhibitory concentration (MIC)
Procedure: as §1

[22] = test system: Pseudomonas aeruginosa 1771; assay: as above; conditions: 2-fold agar dilution, Muller-Hinton agar, 18 hours at 37° C., read-out: minimum inhibitory concentration (MIC)
Procedure: as §1

[23] = test system: Staphylococcus aureus 503; assay: as above; conditions: 2-fold agar dilution, Muller-Hinton agar, 18 hours at 37° C., read-out: minimum inhibitory concentration (MIC)
Procedure: as §1

[24] = test system: Staphylococcus aureus 285; assay: as above; conditions: 2-fold agar dilution, Muller-Hinton agar, 18 hours at 37° C., read-out: minimum inhibitory concentration (MIC)
Procedure: as §1

[25] = test system: Pseudomonas aeruginosa 1592E; assay: as above; conditions: 2-fold agar dilution, Muller-Hinton agar, 18 hours at 37° C., read-out: minimum inhibitory concentration (MIC)
Procedure: as §1

[26] = test system: Enterobacter clocae 1321E; assay: as above; conditions: 2-fold agar dilution, Muller-Hinton agar, 18 hours at 37° C., read-out: minimum inhibitory concentration (MIC)
Procedure: as §1

[27] = test system: Streptococcus pyogens 308A; assay: as above; conditions: 2-fold agar dilution, Muller-Hinton agar, 18 hours at 37° C., read-out: minimum inhibitory concentration (MIC)
Procedure: as §1

Esherichia coli DC0 = assay: as above; conditions: 2-fold agar dilution, Muller-Hinton agar, 18 hours at 37° C., read-out: minimum inhibitory concentration (MIC)
Procedure: as §1

Salmonella typhimurium = assay: as above; conditions: Salmonella enterica, 2-fold agar dilution, Muller-Hinton agar, 18 hours at 37° C., read-out: minimum inhibitory concentration (MIC)
Procedure: as §1

[28] = test system: Streptococcus faecium MD 8b; assay: as above; conditions: Enterococcus faecium, MD8B, 2-fold agar dilution, Muller-Hinton agar, 18 hours at 37° C., read-out: minimum inhibitory concentration (MIC)
Procedure: as §1

Esherichia coli TEM = assay: as above; conditions: 2-fold agar dilution, Muller-Hinton agar, 18 hours at 37° C., read-out: minimum inhibitory concentration (MIC)
Procedure: as §1

[29] = test system: Pseudomonas aeruginosa 9027; assay: as above; conditions: 2-fold agar dilution, Muller-Hinton agar, 18 hours at 37° C., read-out: minimum inhibitory concentration (MIC)
Procedure: as §1

Esherichia coli 1507E = assay: as above; conditions: 2-fold agar dilution, Muller-Hinton agar, 18 hours at 37° C., read-out: minimum inhibitory concentration (MIC)
Procedure: as §1

Esherichia coli 078 = assay: as above; conditions: 2-fold agar dilution, Muller-Hinton agar, 18 hours at 37° C., read-out: minimum inhibitory concentration (MIC)
Procedure: as §1

[30] = test system: Staphylococcus aureus SG511; assay: as above; conditions: 2-fold agar dilution, Muller-Hinton agar, 18 hours at 37° C., read-out: minimum inhibitory concentration (MIC)
Procedure: as §1

Enterobacter clocae P99 = assay: as above; conditions: 2-fold agar dilution, Muller-Hinton agar, 18 hours at 37° C., read-out: minimum inhibitory concentration (MIC)
Procedure: as §1

[31] = test system: Pseudomonas aeruginosa 1771M; assay: as above; conditions: Pseudomonas aeruginosa, 1771M, 18 h, read-out: minimum inhibitory concentration (MIC)
Procedure: as §1

Row | Structure (SMILES) | MIC [1] | MIC [2] | MIC [3] | MIC [4] | MIC [5] | MIC [6] | MIC [7] | MIC [8] | MIC [9] | MIC [10] | MIC [11] | MIC [12] | MIC [13] | MIC [14] | MIC [15] | MIC [16] | MIC [17] | MIC [18] | MIC [19] | MIC [20] | also measured
1 | CON=C1CN(c2c(F)c(N)c3c(=O)c(C(=O)O)cn(C4CC4)c3c2F)CC12CN(C)C2 [Example 11, 1-Cyclopropyl-5-amino-6,8-difluoro-7-[8-(methoxyimino)-2-methyl-2,6-diazaspiro[3,4]oct-6-yl]-4-oxo-1,4-dihydro-3-quinolinecarboxylic acid] | 0.013 µg/mL (≈ 0.0291 µM) | 0.013 µg/mL (≈ 0.0291 µM) | 0.013 µg/mL (≈ 0.0291 µM) | 0.007 µg/mL (≈ 0.0156 µM) | 0.013 µg/mL (≈ 0.0291 µM) | 0.007 µg/mL (≈ 0.0156 µM) | 0.004 µg/mL (≈ 0.00894 µM) | 0.013 µg/mL (≈ 0.0291 µM) | 0.195 µg/mL (≈ 0.436 µM) | 0.781 µg/mL (≈ 1.75 µM) | 0.195 µg/mL (≈ 0.436 µM) | 0.195 µg/mL (≈ 0.436 µM) | 0.007 µg/mL (≈ 0.0156 µM) | 0.195 µg/mL (≈ 0.436 µM) | 0.013 µg/mL (≈ 0.0291 µM) | 0.195 µg/mL (≈ 0.436 µM) | 0.781 µg/mL (≈ 1.75 µM) | 0.013 µg/mL (≈ 0.0291 µM) | 0.007 µg/mL (≈ 0.0156 µM) | 0.004 µg/mL (≈ 0.00894 µM) | MIC [21]: 0.049 µg/mL (≈ 0.11 µM); MIC (Klebsiella oxytoca 1082E): < 0.002 µg/mL; MIC [22]: 0.781 µg/mL (≈ 1.75 µM); MIC [23]: 0.004 µg/mL (≈ 0.00894 µM); MIC [24]: 0.007 µg/mL (≈ 0.0156 µM); MIC [25]: 0.781 µg/mL (≈ 1.75 µM); MIC [26]: 0.004 µg/mL (≈ 0.00894 µM); MIC [27]: 0.013 µg/mL (≈ 0.0291 µM); MIC (Esherichia coli DC0): 0.098 µg/mL (≈ 0.219 µM); MIC (Salmonella typhimurium): 0.007 µg/mL (≈ 0.0156 µM); MIC [28]: 0.049 µg/mL (≈ 0.11 µM); MIC (Esherichia coli TEM): 0.013 µg/mL (≈ 0.0291 µM); MIC [29]: 0.781 µg/mL (≈ 1.75 µM); MIC (Esherichia coli 1507E): 0.013 µg/mL (≈ 0.0291 µM); MIC (Esherichia coli 078): < 0.002 µg/mL; MIC [30]: < 0.002 µg/mL; MIC (Enterobacter clocae P99): 0.013 µg/mL (≈ 0.0291 µM); MIC [31]: 0.391 µg/mL (≈ 0.874 µM)
2 | C[C@@H]1CN(c2c(F)c(N)c3c(=O)c(C(=O)O)cn(C4CC4)c3c2F)C[C@H](C)N1 [Sparfloxacin, sparfloxacin, reference compound] | 0.098 µg/mL (≈ 0.25 µM) | 0.049 µg/mL (≈ 0.125 µM) | 0.098 µg/mL (≈ 0.25 µM) | 0.098 µg/mL (≈ 0.25 µM) | 0.098 µg/mL (≈ 0.25 µM) | 0.049 µg/mL (≈ 0.125 µM) | 0.049 µg/mL (≈ 0.125 µM) | 0.049 µg/mL (≈ 0.125 µM) | 3.12 µg/mL (≈ 7.96 µM) | 6.25 µg/mL (≈ 15.9 µM) | 6.25 µg/mL (≈ 15.9 µM) | 6.25 µg/mL (≈ 15.9 µM) | 0.098 µg/mL (≈ 0.25 µM) | 6.25 µg/mL (≈ 15.9 µM) | 0.098 µg/mL (≈ 0.25 µM) | 6.25 µg/mL (≈ 15.9 µM) | 6.25 µg/mL (≈ 15.9 µM) | 0.098 µg/mL (≈ 0.25 µM) | 0.049 µg/mL (≈ 0.125 µM) | 0.195 µg/mL (≈ 0.497 µM) | MIC [21]: 0.025 µg/mL (≈ 0.0637 µM); MIC (Klebsiella oxytoca 1082E): < 0.002 µg/mL; MIC [22]: 0.781 µg/mL (≈ 1.99 µM); MIC [23]: 0.049 µg/mL (≈ 0.125 µM); MIC [24]: 0.049 µg/mL (≈ 0.125 µM); MIC [25]: 0.781 µg/mL (≈ 1.99 µM); MIC [26]: 0.004 µg/mL (≈ 0.0102 µM); MIC [27]: 0.391 µg/mL (≈ 0.996 µM); MIC (Esherichia coli DC0): 0.195 µg/mL (≈ 0.497 µM); MIC (Salmonella typhimurium): 0.007 µg/mL (≈ 0.0178 µM); MIC [28]: 0.391 µg/mL (≈ 0.996 µM); MIC (Esherichia coli TEM): 0.013 µg/mL (≈ 0.0331 µM); MIC [29]: 0.781 µg/mL (≈ 1.99 µM); MIC (Esherichia coli 1507E): 0.025 µg/mL (≈ 0.0637 µM); MIC (Esherichia coli 078): 0.004 µg/mL (≈ 0.0102 µM); MIC [30]: 0.098 µg/mL (≈ 0.25 µM); MIC (Enterobacter clocae P99): 0.007 µg/mL (≈ 0.0178 µM); MIC [31]: 0.195 µg/mL (≈ 0.497 µM)
